Results published in patent publication US9133218B2, “Pesticidally active pyridyl- and pyrimidyl-substituted thiazole derivatives” (Syngenta Participations AG, priority 2012, dated 2015).
Like-named read-outs stand apart in the source and are kept apart here.

Legend:
Type in all cases: in vivo
[1] = test system: Myzus persicae (Green Peach Aphid); assay: Activity against Myzus persicae (green peach aphid), sunflower leaf disc spray test; settings: foliar, 144 h, read-out: activity (mortality) against Myzus persicae
Excerpt: Activity Against Myzus persicae (Green Peach Aphid)

[2] = test system: Bemisia tabaci (Cotton White Fly); assay: Activity against Bemisia tabaci (cotton white fly), cotton leaf disc spray test; settings: foliar, 144 h, read-out: activity (mortality and special effects) against Bemisia tabaci
Method: Activity Against Bemisia tabaci (Cotton White Fly)
(§1) Cotton leaf discs were placed on agar in a 24-well microtiter plate and sprayed with test solutions. After drying, the leaf discs were infested with 12 to 18 adults. After an incubation period of 6 days after infestation, samples were checked for mortality and special effects (e.g. phytotoxicity).

[3] = test system: Tetranychusurticae (Two-Spotted Spider Mite); assay: whole plant or invertebrate; settings: Tetranychus urticae, foliar, 192 h, read-out: activity (egg, larval and adult mortality) against Tetranychus urticae
Excerpt: Activity Against Tetranychusurticae (Two-Spotted Spider Mite)
Bean leaf discs on agar in 24-well microtiter plates are sprayed with test solutions. After drying, the leaf discs are infested with mite populations of mixed ages. 8 days later, discs are checked for egg mortality, larval mortality, and adult mortality.

[4] = test system: Heliothis virescens (Tobacco Budworm); assay: Activity against Heliothis virescens (tobacco budworm), eggs on artificial diet; settings: eggs 0-24 h old, 4 days incubation, read-out: activity (egg mortality, larval mortality, growth regulation) against Heliothis virescens
Method: Activity Against Heliothis virescens (Tobacco Budworm)
Eggs (0-24 h old) are placed in 24-well microtiter plate on artificial diet and treated with test solutions by pipetting. After an incubation period of 4 days, samples are checked for egg mortality, larval mortality, and growth regulation.

[5] = test system: Spodoptera littoralis (Egyptian Cotton Leaf Worm); assay: Activity against Spodoptera littoralis (Egyptian cotton leaf worm), systemic lettuce test; settings: 120 h, systemic via lettuce roots, 5 days after infestation, read-out: activity (mortality, repellent effect, feeding behavior, growth regulation) against Spodoptera littoralis
Excerpt: Activity Against Spodoptera littoralis (Egyptian Cotton Leaf Worm)
Test compounds were applied by pipette into 24 well plates and mixed with agar. Lettuce seeds were placed on the agar and the multi well plate is closed by another plate which contains also agar. After 7 days the roots have absorbed the compound and the lettuce has grown into the lid plate. The lettuce leafs were now cut off into the lid plate. Spodoptera eggs were pipetted through a plastic stencil on a humid gel blotting paper and the plate closed with it. The samples are checked for mortality, repellent effect, feeding behavior, and growth regulation 5 days after infestation.

[6] = test system: Aedes aegypti (Yellow Fever Mosquito); assay: whole plant or invertebrate; settings: 200 ppm in ethanol, adult females, after 48 h and/or 24 h, read-out: control of Aedes aegypti (mortality)
Method: Aedes aegypti (Yellow Fever Mosquito)
(§2) Test solutions, at an application rate of 200 ppm in ethanol, were applied to 12 well tissue culture plates. Once the deposits were dry, five, two to five day old adult female Aedes aegypti were added to each well, and sustained with a 10% sucrose solution in a cotton wool plug. Mortality was assessed at 24 and 48 hours after introduction. The following compounds gave at least 80% control of Aedes aegypti after 48 h and/or 24 h: No. 1.026, 1.027, 1.030 and 1.025.

[7] = test system: Anopheles stephensi (Indian Malaria Mosquito); assay: Anopheles stephensi (Indian malaria mosquito) contact test on treated plates; settings: 200 ppm in ethanol, adult females, after 48 h and/or 24 h, read-out: control of Anopheles stephensi (mortality)
Method: Anopheles stephensi (Indian Malaria Mosquito)
as §2, with “Anopheles stephensi” for “Aedes aegypti”, “1.026” for “1.026, 1.027, 1.030”, “1.030.” for “1.025.”

[8] = test system: Frankliniellaoccidentalis (Western Flower Thrips); assay: Activity against Frankliniella occidentalis (western flower thrips), sunflower leaf disc spray test; settings: foliar, 168 h, mixed-age population, 7 days after treatment, read-out: activity (mortality and special effects) against Frankliniella occidentalis
Method: Activity Against Frankliniellaoccidentalis (Western Flower Thrips)
as §1, with “Sunflower” for “Cotton”, “are” for “were”, “a Frankliniella population of mixed ages.” for “12 to 18 adults.”, “7” for “6”, “treatment,” for “infestation,”

[9] = 200 ppm, mixed-age aphid population, 6 days incubation
[10] = 200 ppm, adults, 6 days after infestation

## Cc1nc(-c2cccnc2)sc1-c1ccc2c(n1)/C(=N/Nc1ccc(F)cc1)CCC2 [Compound 6.029]
[1]; [9]
  mortality at 200 ppm: > 80%

## CCCO/N=C1\CCCc2ccc(-c3sc(-c4cccnc4)nc3C)nc21 [Compound 1.028]
[1]; [9]
  mortality at 200 ppm: > 80%
[2]; [10]
  mortality at 200 ppm: > 80%
[3]
  mortality at 200 ppm: > 80%

## Cc1nc(-c2cccnc2)sc1-c1ccc2c(n1)/C(=N/NC(C)(C)C)CCC2 [Compound 6.035]
[1]; [9]
  mortality at 200 ppm: > 80%

## COC(=O)N/N=C1\CCCc2ccc(-c3sc(-c4cccnc4)nc3C)nc21 [Compound 6.011, Methyl N-[(E)-[2-[4-methyl-2-(3-pyridyl)thiazol-5-yl]-6,7-dihydro-5H-quinolin-8-ylidene]amino]carbamate]
[1]; [9]
  mortality at 200 ppm: > 80%
[2]; [10]
  mortality at 200 ppm: > 80%

## Cc1nc(-c2cccnc2)sc1-c1ccc2c(n1)/C(=N/OCCC1CCCN1C)CCC2 (stereo not drawn) [Compound 1.054]
[1]; [9]
  mortality at 200 ppm: > 80%

## C=CCO/N=C1\CCSc2sc(-c3sc(-c4cccnc4)nc3C)nc21 [Compound 3.053]
[1]; [9]
  mortality at 200 ppm: > 80%
[2]; [10]
  mortality at 200 ppm: > 80%

## Cc1nc(-c2cccnc2)sc1-c1ccc2c(n1)/C(=N\NCC(F)(F)F)CCC2 [Compound 6.033]
[1]; [9]
  mortality at 200 ppm: > 80%
[4]
  mortality at 200 ppm: > 80%

## Cc1nc(-c2cccnc2)sc1-c1ccc2c(n1)/C(=N/OCCCc1ccccc1)CCC2 [Compound 1.049]
[1]; [9]
  mortality at 200 ppm: > 80%
[2]; [10]
  mortality at 200 ppm: > 80%

## Cc1nc(-c2cccnc2)sc1-c1ccc2c(n1)/C(=N/OCc1ccccc1)CCC2 [Compound 1.068]
[1]; [9]
  mortality at 200 ppm: > 80%

## Cc1nc(-c2cccnc2)sc1-c1ccc2c(n1)/C(=N/N(C)S(C)(=O)=O)CCO2 [Compound 6.021]
[2]; [10]
  mortality at 200 ppm: > 80%

## Cc1nc(-c2cccnc2)sc1-c1ccc2c(n1)/C(=N/OCCc1ccc(F)cc1)CCC2 [Compound 1.053]
[1]; [9]
  mortality at 200 ppm: > 80%
[5]
  mortality at 12.5 ppm: > 80%

## CCO/N=C1\CCCc2ccc(-c3sc(-c4cccnc4)nc3C)nc21 [Compound 1.027]
[6]
  mortality at 200 ppm: ≥ 80%
[1]; [9]
  mortality at 200 ppm: > 80%
[2]; [10]
  mortality at 200 ppm: > 80%

## C=CCO/N=C1\CCCc2ccc(-c3sc(-c4cccnc4)nc3C)nc21 [Compound 1.030]
[6]
  mortality at 200 ppm: ≥ 80%
[1]; [9]
  mortality at 200 ppm: > 80%
[2]; [10]
  mortality at 200 ppm: > 80%
[7]
  mortality at 200 ppm: ≥ 80%

## CN/N=C1\CCCc2ccc(-c3sc(-c4cccnc4)nc3C)nc21 [Compound 6.009]
[1]; [9]
  mortality at 200 ppm: > 80%

## Cc1nc(-c2cccnc2)sc1-c1ccc2c(n1)/C(=N/OCc1ccc(Cl)cc1)CCC2 [Compound 1.062]
[1]; [9]
  mortality at 200 ppm: > 80%

## CCO/N=C1\CCOc2ccc(-c3sc(-c4cccnc4)nc3C)nc21 [Compound 1.033]
[1]; [9]
  mortality at 200 ppm: > 80%
[2]; [10]
  mortality at 200 ppm: > 80%

## COc1ccc(N/N=C2\CCCc3ccc(-c4sc(-c5cccnc5)nc4C)nc32)cc1 [Compound 6.034]
[1]; [9]
  mortality at 200 ppm: > 80%

## C=CCO/N=C1\CCOc2ccc(-c3sc(-c4cccnc4)nc3C)nc21 [Compound 1.036]
[1]; [9]
  mortality at 200 ppm: > 80%
[2]; [10]
  mortality at 200 ppm: > 80%

## CN/N=C1\CCOc2ccc(-c3sc(-c4cccnc4)nc3C)nc21 [Compound 6.016]
[1]; [9]
  mortality at 200 ppm: > 80%

## Cc1nc(-c2cccnc2)sc1-c1ccc2c(n1)/C(=N/NCC(F)(F)F)CCC2 [Compound 6.032]
[1]; [9]
  mortality at 200 ppm: > 80%

## Cc1nc(-c2cccnc2)sc1-c1ccc2c(n1)/C(=N/OCCCC1OCCO1)CCC2 [Compound 1.051]
[1]; [9]
  mortality at 200 ppm: > 80%

## Cc1nc(-c2cccnc2)sc1-c1ccc2c(n1)/C(=N/OCC1OCCO1)CCC2 [Compound 1.066]
[1]; [9]
  mortality at 200 ppm: > 80%

## CO/N=C1\CCCc2ccc(-c3cnc(-c4cccnc4)s3)nc21 [Compound 1.002]
[1]; [9]
  mortality at 200 ppm: > 80%
[2]; [10]
  mortality at 200 ppm: > 80%
[8]
  mortality at 200 ppm: > 80%
[4]
  mortality at 200 ppm: > 80%

## CO/N=C1\CCSc2sc(-c3sc(-c4cccnc4)nc3C)nc21 [Compound 3.050, N-methoxy-2-[4-methyl-2-(3-pyridyl)thiazol-5-yl]-5,6-dihydrothiopyrano[3,2-d]thiazol-7-imine]
[1]; [9]
  mortality at 200 ppm: > 80%
[2]; [10]
  mortality at 200 ppm: > 80%

## Cc1nc(-c2cccnc2)sc1-c1ccc2c(n1)/C(=N/OC(C)C)CCC2 [Compound 1.029]
[1]; [9]
  mortality at 200 ppm: > 80%
[2]; [10]
  mortality at 200 ppm: > 80%

## Cc1nc(-c2cccnc2)sc1-c1ccc2c(n1)/C(=N/OC(C)C)CCO2 [Compound 1.035]
[1]; [9]
  mortality at 200 ppm: > 80%
[2]; [10]
  mortality at 200 ppm: > 80%

## CO/N=C1\CCCc2ccc(-c3sc(-c4cccnc4)nc3C)nc21 [Compound 1.026]
[6]
  mortality at 200 ppm: ≥ 80%
[1]; [9]
  mortality at 200 ppm: > 80%
[2]; [10]
  mortality at 200 ppm: > 80%
[7]
  mortality at 200 ppm: ≥ 80%

## Cc1nc(-c2cccnc2)sc1-c1ccc2c(n1)/C(=N/OCC1CCCCC1)CCC2 [Compound 1.064]
[1]; [9]
  mortality at 200 ppm: > 80%

## Cc1nc(-c2cccnc2)sc1-c1ccc2c(n1)/C(=N/OCC#Cc1ccccc1)CCC2 [Compound 1.063]
[1]; [9]
  mortality at 200 ppm: > 80%
[3]
  mortality at 200 ppm: > 80%

## COC(=O)N/N=C1\CCOc2ccc(-c3sc(-c4cccnc4)nc3C)nc21 [Compound 6.018]
[2]; [10]
  mortality at 200 ppm: > 80%

## CCO/N=C1\CCSc2sc(-c3sc(-c4cccnc4)nc3C)nc21 [Compound 3.051]
[1]; [9]
  mortality at 200 ppm: > 80%
[2]; [10]
  mortality at 200 ppm: > 80%

## Cc1nc(-c2cccnc2)sc1-c1ccc2c(n1)/C(=N/OCc1cc(C(F)(F)F)cc(C(F)(F)F)c1)CCC2 [Compound 1.067]
[5]
  mortality at 12.5 ppm: > 80%

## CCO/N=C1\CCCc2ccc(-c3cnc(-c4cccnc4)s3)nc21 [Compound 1.003]
[1]; [9]
  mortality at 200 ppm: > 80%
[2]; [10]
  mortality at 200 ppm: > 80%

## Cc1nc(-c2cccnc2)sc1-c1ccc2c(n1)/C(=N/OCC(F)F)CCC2 [Compound 1.050]
[1]; [9]
  mortality at 200 ppm: > 80%
[5]
  mortality at 12.5 ppm: > 80%

## COC(=O)N(C)/N=C1\CCOc2ccc(-c3sc(-c4cccnc4)nc3C)nc21 [Compound 6.019]
[1]
  mortality at 200 ppm: > 80%
[2]
  mortality at 200 ppm: > 80%

## Cc1nc(-c2cccnc2)sc1-c1ccc2c(n1)/C(=N/OCCSc1ccc(F)cc1)CCC2 [Compound 1.065]
[4]
  mortality at 200 ppm: > 80%

## CO/N=C1\CCOc2ccc(-c3sc(-c4cccnc4)nc3C)nc21 [Compound 1.032, N-methoxy-6-[4-methyl-2-(3-pyridyl)thiazol-5-yl]-2,3-dihydropyrano[3,2-b]pyridin-4-imine]
[1]; [9]
  mortality at 200 ppm: > 80%
[2]; [10]
  mortality at 200 ppm: > 80%

## Cc1nc(-c2cccnc2)sc1-c1ccc2c(n1)/C(=N/O)CCC2 (single isomer, unassigned) [Compound 1.025, 2-[4-methyl-2-(3-pyridyl)thiazol-5-yl]-6,7-dihydro-5H-quinolin-8-one oxime]
[6]
  mortality at 200 ppm: ≥ 80%
[1]; [9]
  mortality at 200 ppm: > 80%
[2]; [10]
  mortality at 200 ppm: > 80%
